From US10703764B2, “Benzopiperazine compositions as BET bromodomain inhibitors” (FORMA Therapeutics, Inc., priority 2013, dated 2020) come the findings set out here.

One may read the IC50 as the point on the concentration scale where inhibition reaches its midpoint.

Assay [1] concerns the target T1, BRD4 BD2 (Homo sapiens, UniProt O60885).
T1 construct: made in house
Kind of assay: AlphaScreen binding assay, BRD4 Bromodomain 2. A digest of the protocol: (§1)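 An AlphaScreen competition format was used with His-BRD4 BD1 or BD2 and biotin-H4 K5/8/12/16-acetyl peptide, each at matched final levels of 50 nM (BD1) or 100 nM (BD2). Incubation in HEPES/NaCl buffer with 0.1% BSA and 0.01% Triton X-100 ran ≥1 h before IC50 determination.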

Assay [2] addresses T2, BRD4 BD1 (Homo sapiens, UniProt O60885).
T2 construct: made in house
Kind of assay: AlphaScreen binding assay, BRD4 Bromodomain 1. A digest of the protocol: as §1
For orientation: In Alpha technology, singlet oxygen from a donor bead excites a nearby acceptor bead.

SMILES strings stand for the structures. A value given as a limit tells only on which side of the number the result lay.

`CCOC(=O)N1C[C@H](C)N(C(=O)OC)c2ccc(-c3cnn(C4CC4)c3)cc21` [Example I-380]: the results for the IC50 in assay [1] and in assay [2] were more than 500 nM and 100 to 1000 nM, respectively.
Regarding `CC(=O)N1c2ccc(-c3ccccn3)cc2N(C(=O)c2ccco2)C[C@@H]1C` [Example I-381], the IC50 in assay [1] is 50 to 500 nM; in assay [2], 1000 to 10000 nM.
Regarding `CC(=O)N1c2ccc(-c3ncccn3)cc2N(C(=O)c2ccco2)C[C@@H]1C` [Example I-383], the IC50 in assay [1] was in the range of 50 to 500 nM; in assay [2], 1000 to 10000 nM.
Consider `CC(=O)N1c2ccc(-c3cnccn3)cc2N(C(=O)c2ccco2)C[C@@H]1C` [Example I-384], for which the IC50 in assay [1] lay within 50 to 500 nM; in assay [2], 1000 to 10000 nM.
The like results for `CC(=O)N1c2ccc(-c3ccc4[nH]ccc4c3)cc2N(C(=O)c2ccco2)CC1C` (stereo not shown) [Example I-385] were, in that order, more than 500 nM and 1000 to 10000 nM.
The matching figures for `CC(=O)N1c2ccc(-c3cccc4c3OCC4)cc2N(C(=O)c2ccco2)C[C@@H]1C` [Example I-386]: 50 to 500 nM and 1000 to 10000 nM.
For the compound `CC(=O)N1c2ccc(-c3nccn3C)cc2N(C(=O)c2ccco2)C[C@@H]1C` [Example I-388], the IC50 was more than 500 nM in assay [1] and more than 10000 nM in assay [2].
The matching figures for `CC(=O)N1c2ccc(-c3cncn3C)cc2N(C(=O)c2ccco2)C[C@@H]1C` [Example I-389]: 50 to 500 nM and more than 10000 nM.
Turning to `CC(=O)N1c2ccc(-c3cnoc3)cc2N(C(=O)c2ccco2)C[C@@H]1C` [Example I-390], the IC50 in assay [1] was in the range of 50 to 500 nM; in assay [2], 1000 to 10000 nM.
Turning to `CC(=O)N1c2ccc(-c3cnc4ccccn34)cc2N(C(=O)c2ccco2)C[C@@H]1C` [Example I-391], the IC50 lay in the range of 50 to 500 nM in assay [1] and 1000 to 10000 nM in assay [2].
For the compound `CC(=O)N1c2ccc(-c3ccc(C#N)cn3)cc2N(C(=O)c2ccco2)C[C@@H]1C` [Example I-392], the IC50 was 50 to 500 nM in assay [1] and 1000 to 10000 nM in assay [2].
Take `CC(=O)N1c2ccc(-c3ccc4nnc(C)n4c3)cc2N(C(=O)c2ccco2)C[C@@H]1C` [Example I-393]: the IC50 lay within 50 to 500 nM in assay [1] and 1000 to 10000 nM in assay [2].
The matching figures for `CC(=O)N1c2ccc(-c3ccc4[nH]c(=O)[nH]c4c3)cc2N(C(=O)c2ccco2)CC1C` (stereo not shown) [Example I-394]: less than 50 nM and 100 to 1000 nM.
The like results for `CC(=O)N1c2ccc(-c3ccc4c(c3)n(C)c(=O)n4C)cc2N(C(=O)c2ccco2)C[C@@H]1C` [Example I-395] were, in that order, less than 50 nM and 100 to 1000 nM.
For the compound `CC(=O)N1c2ccc(-c3ccc4nncn4n3)cc2N(C(=O)c2ccco2)C[C@@H]1C` [Example I-396], the IC50 in assay [1] is 50 to 500 nM; in assay [2], 1000 to 10000 nM.
The like results for `CC(=O)N1c2ccc(-c3ccc4[nH]ccc4n3)cc2N(C(=O)c2ccco2)CC1C` (stereo not shown) [Example I-397] were, in that order, 50 to 500 nM and 1000 to 10000 nM.
Turning to `CC(=O)N1c2ccc(-c3cccc(-c4noc(C)n4)c3)cc2N(C(=O)c2ccco2)C[C@@H]1C` [Example I-402], the half-maximal inhibitory concentration (IC50) was less than 50 nM in assay [1] and 1000 to 10000 nM in assay [2].
As for `CC(=O)N1c2ccc(-c3nnc(C)s3)cc2N(C(=O)c2ccco2)C[C@@H]1C` [Example I-403], the results for the IC50 in assay [1] and in assay [2] were 50 to 500 nM and 1000 to 10000 nM, respectively.
On to `CC(=O)N1c2ccc(-c3ccc4nn(C)cc4c3)cc2N(C(=O)c2ccco2)C[C@@H]1C` [Example I-404], for which the IC50 lay within 50 to 500 nM in assay [1] and 1000 to 10000 nM in assay [2].
Take `CC(=O)N1c2ccc(-c3cccc(-c4ncccn4)c3)cc2N(C(=O)c2ccco2)C[C@@H]1C` [Example I-405]: the IC50 lay within 50 to 500 nM in assay [1] and 1000 to 10000 nM in assay [2].
Turning to `CC(=O)N1c2ccc(-c3ccn4ccnc4n3)cc2N(C(=O)c2ccco2)C[C@@H]1C` [Example I-406], the IC50 is more than 500 nM in assay [1] and more than 10000 nM in assay [2].
`CC(=O)N1c2ccc(C(=O)c3ccccc3)cc2N(C(=O)c2ccco2)C[C@@H]1C` [Example I-408]: the IC50 is more than 500 nM in assay [1] and 1000 to 10000 nM in assay [2].
Turning to `CC(=O)N1c2ccc(-c3ccc(=O)n(C)c3)cc2N(C(=O)c2ccco2)C[C@@H]1C` [Example I-411], the IC50 in assay [1] is 50 to 500 nM; in assay [2], 1000 to 10000 nM.
Turning to `CC(=O)N1c2ccc(-c3ccc(-c4nnco4)cc3)cc2N(C(=O)c2ccco2)C[C@@H]1C` [Example I-416], the IC50 in assay [1] is less than 50 nM; in assay [2], 1000 to 10000 nM.
As to `CC(=O)N1c2ccc(-c3ccc(CS(N)(=O)=O)cc3)cc2N(C(=O)c2ccco2)C[C@@H]1C` [Example I-418], the results for the IC50 in assay [1] and in assay [2] were less than 50 nM and 1000 to 10000 nM, respectively.
For the compound `CC(=O)N1c2ccc(-c3cnn(C)n3)cc2N(C(=O)c2ccco2)C[C@@H]1C` [Example I-419], the IC50 was more than 500 nM in assay [1] and 100 to 1000 nM in assay [2].
Consider `CC(=O)N1c2ccc(-c3ccc(-c4cc(C(=O)O)[nH]n4)cc3)cc2N(C(=O)c2ccco2)CC1C` (stereo not shown) [Example I-421], for which the IC50 in assay [1] is less than 50 nM; in assay [2], 100 to 1000 nM.
In the case of `CC(=O)N1c2ccc(-c3ccc(N4CCCS4(=O)=O)cc3)cc2N(C(=O)c2ccco2)C[C@@H]1C` [Example I-424], the 50% inhibitory concentration (IC50) in assay [1] was less than 50 nM; in assay [2], 100 to 1000 nM.
For the compound `CC(=O)N1c2ccc(-c3ncc(N)s3)cc2N(C(=O)c2ccco2)C[C@@H]1C` [Example I-431], the IC50 in assay [1] is more than 500 nM; in assay [2] it was more than 10000 nM.
With `CC(=O)N1c2ccc(-c3cnsc3)cc2N(C(=O)c2ccco2)C[C@@H]1C` [Example I-432], the IC50 in assay [1] is 50 to 500 nM; in assay [2], 100 to 1000 nM.
Regarding `CC(=O)N1c2ccc(-c3ccc(S(=O)(=O)CC(=O)N(C)C)cc3)cc2N(C(=O)c2ccco2)C[C@@H]1C` [Example I-433], the figures for the IC50 in assay [1] and in assay [2] were 50 to 500 nM and 100 to 1000 nM, respectively.
For `CC(=O)N1c2ccc(-c3ccns3)cc2N(C(=O)c2ccco2)C[C@@H]1C` [Example I-434], the IC50 is 50 to 500 nM in assay [1] and 1000 to 10000 nM in assay [2].
For the compound `C[C@H]1CN(C(=O)C2CC2)c2cc(-c3ccc(N4CCCS4(=O)=O)cc3)ccc2N1C(=O)C1CC1` [Example I-440], the values for the IC50 in assay [1] and in assay [2] were 50 to 500 nM and 100 to 1000 nM, respectively.
Take `CC(=O)N1c2ccc(-c3cnc(N)cn3)cc2N(C(=O)C2CC2)C[C@@H]1C` [Example I-441]: the IC50 in assay [1] lay in the range of 50 to 500 nM; in assay [2], 100 to 1000 nM.
The matching figures for `C[C@H]1CN(C(=O)C2CC2)c2cc(-c3cnc(N)cn3)ccc2N1C(=O)C1CC1` [Example I-442]: 50 to 500 nM and 1000 to 10000 nM.
For `C[C@H]1CN(C(=O)C2CC2)c2cc(-c3ccc(C4(O)COC4)cc3)ccc2N1C(=O)C1CC1` [Example I-444], the IC50 was in the range of 50 to 500 nM in assay [1] and 100 to 1000 nM in assay [2].
As to `C[C@H]1CN(C(=O)C2CC2)c2cc(-c3ccc(CS(N)(=O)=O)cc3)ccc2N1C(=O)C1CC1` [Example I-446], the IC50 fell in the range of 50 to 500 nM in assay [1] and 100 to 1000 nM in assay [2].
Turning to `C[C@H]1CN(C(=O)C2CC2)c2cc(-c3ccc(S(=O)(=O)CCN)cc3)ccc2N1C(=O)C1CC1` [Example I-448], the IC50 is less than 50 nM in assay [1] and 100 to 1000 nM in assay [2].
Consider `C[C@H]1CN(C(=O)C2CC2)c2cc(-c3ccc(S(=O)(=O)CCO)cc3)ccc2N1C(=O)C1CC1` [Example I-450], for which the IC50 was 50 to 500 nM in assay [1] and 1000 to 10000 nM in assay [2].
For the compound `CC(=O)N1c2ccc(-c3ccc(C(=O)NCCN)cc3)cc2N(C(=O)C2CC2)C[C@@H]1C` [Example I-451], the IC50 in assay [1] was in the range of 50 to 500 nM; in assay [2], 100 to 1000 nM.
With `C[C@H]1CN(C(=O)C2CC2)c2cc(-c3ccc(C(=O)NCCN)cc3)ccc2N1C(=O)C1CC1` [Example I-452], the IC50 in assay [1] was 50 to 500 nM; in assay [2] it was 1000 to 10000 nM.
In the case of `CC(=O)N1c2ccc(-c3cn(C)nn3)cc2N(C(=O)C2CC2)C[C@@H]1C` [Example I-453], the IC50 is 50 to 500 nM in assay [1] and 1000 to 10000 nM in assay [2].
The matching figures for `C[C@H]1CN(C(=O)C2CC2)c2cc(-c3cn(C)nn3)ccc2N1C(=O)C1CC1` [Example I-454]: 50 to 500 nM and 1000 to 10000 nM.
With `COC(=O)N1c2ccc(-c3ccc(N4CCCS4(=O)=O)cc3)cc2N(C(=O)C2CC2)C[C@@H]1C` [Example I-457], the IC50 in assay [1] is 50 to 500 nM; in assay [2] it was 1000 to 10000 nM.
The matching figures for `COC(=O)N1c2ccc(-c3cnc(N)cn3)cc2N(C(=O)C2CC2)C[C@@H]1C` [Example I-458]: 50 to 500 nM and 1000 to 10000 nM.
As to `COC(=O)N1c2ccc(-c3ccc(C4(O)COC4)cc3)cc2N(C(=O)C2CC2)C[C@@H]1C` [Example I-459], the IC50 was in the range of 50 to 500 nM in assay [1] and 1000 to 10000 nM in assay [2].
Regarding `COC(=O)N1c2ccc(-c3ccc(CS(N)(=O)=O)cc3)cc2N(C(=O)C2CC2)C[C@@H]1C` [Example I-460], the IC50 in assay [1] is 50 to 500 nM; in assay [2], 1000 to 10000 nM.
As for `COC(=O)N1c2ccc(-c3ccc(S(=O)(=O)CCN)cc3)cc2N(C(=O)C2CC2)C[C@@H]1C` [Example I-461], the IC50 in assay [1] is 50 to 500 nM; in assay [2] it was 1000 to 10000 nM.
As to `COC(=O)N1c2ccc(-c3ccc(S(=O)(=O)CCO)cc3)cc2N(C(=O)C2CC2)C[C@@H]1C` [Example I-462], the IC50 in assay [1] fell in the range of 50 to 500 nM; in assay [2], 1000 to 10000 nM.
The like results for `COC(=O)N1c2ccc(-c3ccc(C(=O)NCCN)cc3)cc2N(C(=O)C2CC2)C[C@@H]1C` [Example I-463] were, in that order, 50 to 500 nM and 1000 to 10000 nM.
As to `COC(=O)N1c2ccc(-c3cn(C)nn3)cc2N(C(=O)C2CC2)C[C@@H]1C` [Example I-464], the IC50 was 50 to 500 nM in assay [1] and 1000 to 10000 nM in assay [2].
As for `CC(C)OC(=O)N1C[C@H](C)N(C(=O)C2CC2)c2ccc(-c3ccc(C(=O)NCCN)cc3)cc21` [Example I-481], the half-maximal inhibitory concentration (IC50) was more than 500 nM in assay [1] and 100 to 1000 nM in assay [2].
The matching figures for `COC(=O)N1c2ccc(-c3ccc(N4CCCS4(=O)=O)cc3)cc2N(C(=O)OC(C)C)C[C@@H]1C` [Example I-484]: more than 500 nM and 100 to 1000 nM.
